Laboratory results taken from patent US20230159527A1, “COMPOUNDS AS BCL-2 INHIBITORS” (Fochon Pharmaceuticals, Ltd., priority 2020, published 2023).

Test system: Toledo cells
Assay: Cell proliferation assay, Toledo cells (MTS, 72 h)
Type: cell-based
Conditions: Homo sapiens, Toledo cells, MTS, read-out: Toledo IC50
Procedure: MTS testing kit was purchased from Promega (Madison, Wis., USA). The RPMI-1640, Fetal bovine serum and Penicillin-Streptomycin were purchased from BI (Biological Industries, Beit Haemek, Israel). Dimethyl sulfoxide (DMSO) was purchased from Sigma (St. Louis, Mo., USA). Toledo (ATCC catalog #: CRL-2631) cells were cultured in RPMI-1640 supplemented with Penicillin-Streptomycin and 10% FBS.
To investigate whether a compound is able to inhibit the activity of BCL-2 in cells, a mechanism-based assay using Toledo lines was developed. In this assay, the inhibition of BCL-2 was reflected by the inhibition of cell proliferation of Toledo cells. Cells were plated into 96-well plates at the optimized cell density of 30000 cells/well. Plates were incubated at 37° C., with 5% CO2 for 4h. Compounds were serially diluted and added to the plates with the final concentrations of 10000, 3333.3, 1111.1, 370.4, 123.5, 41.2, 13.7, 4.6 and 1.5 nM. Plates were incubated at 37° C., with 5% CO2 for 72 h. 20 μl MTS was added into each well and the plates were incubated at 37° C., with 5% CO2 for exactly 2 h. The absorbance was measured by a microplate reader at 490 nm. IC50 was calculated using GraphPad Prism 5.0 software.

Row | Structure (SMILES) | IC50 [nM]
1 | CC(C)c1ccccc1[C@@H]1CCCN1C1CC2(CCN(c3ccc(C(=O)NS(=O)(=O)c4cc5c(c([N+](=O)[O-])c4)N[C@@H]([C@H]4CC[C@](C)(O)CC4)CO5)c(Oc4cc5c(F)c[nH]c5nc4O[C@@H]4CCOC4)c3)CC2)C1 (single isomer, unassigned) [Example D-220, 2-((3-fluoro-6-(((R)-tetrahydrofuran-3-yl)oxy)-1H-pyrrolo[2,3-b]pyridin-5-yl)oxy)-N-((S)-3-((1r,4S)-4-hydroxy-4-methylcyclohexyl)-5-nitro-3,4-dihydro-2H-benzo [b][1,4]oxazin-7-yl)sulfonyl)-4-(2-((R or S)-2-(2-isopropylphenyl)pyrrolidin-1-yl)-7-azaspiro[3.5]nonan-7-yl)benzamide] | 1
2 | CC(C)c1ccccc1[C@@H]1CC[C@@H](CO)N1C1CC2(CCN(c3ccc(C(=O)NS(=O)(=O)c4cc5c(c([N+](=O)[O-])c4)N[C@@H]([C@H]4CC[C@](C)(O)CC4)CO5)c(Oc4cnc5[nH]cc(F)c5c4)c3)CC2)C1 [Example D-253, 2-((3-fluoro-1H-pyrrolo[2,3-b]pyridin-5-yl)oxy)-N-(((S)-3-((1r,4S)-4-hydroxy-4-methylcyclohexyl)-5-nitro-3,4-dihydro-2H-benzo[b] [1,4]oxazin-7-yl)sulfonyl)-4-(2-((2S,5S)-2-(hydroxymethyl)-5-(2-isopropylphenyl)pyrrolidin-1-yl)-7-azaspiro[3.5]nonan-7-yl)benzamide] | 1
3 | COCCOc1nc2[nH]ccc2cc1Oc1cc(N2CCC3(CC2)CN([C@H]2CCC[C@H]2c2ccccc2C(C)C)C3)ccc1C(=O)NS(=O)(=O)c1ccc(NC[C@H]2CC[C@](C)(O)CC2)c([N+](=O)[O-])c1 (racemic) [Example D-76, N-((4-((((1r,4r)-4-hydroxy-4-methylcyclohexyl)methyl)amino)-3-nitrophenyl)sulfonyl)-4-(2-((1S,2S and 1R,2R)-2-(2-isopropylphenyl)cyclopentyl)-2,7-diazaspiro[3.5]nonan-7-yl)-2-((6-(2-methoxyethoxy)-1H-pyrrolo[2,3-b]pyridin-5-yl)oxy)benzamide] | 1
4 | CC(C)c1ccccc1[C@@H]1CCCN1C1CC2(CCN(c3ccc(C(=O)NS(=O)(=O)c4cc5c(c([N+](=O)[O-])c4)N[C@@H]([C@H]4CC[C@](C)(O)CC4)CO5)c(Oc4cc5c(F)c[nH]c5nc4Cl)c3)CC2)C1 (single isomer, unassigned) [Example D-84, 2-((6-chloro-3-fluoro-1H-pyrrolo [2,3-b]pyridin-5-yl)oxy)-N-(((S)-3-((1r,4S)-4-hydroxy-4-methylcyclohexyl)-5-nitro-3,4-dihydro-2H-benzo[b][1,4]oxazin-7-yl)sulfonyl)-4-(2-((R or S)-2-(2-isopropylphenyl)pyrrolidin-1-yl)-7-azaspiro[3.5]nonan-7-yl)benzamide] | 1
5 | CO[C@H]1CC[C@H]([C@H]2COc3cc(S(=O)(=O)NC(=O)c4ccc(N5CCC6(CC5)CC(N5CCC[C@H]5c5ccccc5C(C)C)C6)cc4Oc4cnc5[nH]cc(F)c5c4)cc([N+](=O)[O-])c3N2)CC1 (single isomer, unassigned) [Example D-44, 2-((3-fluoro-1H-pyrrolo[2,3-b]pyridin-5-yl)oxy)-4-(2-((R or S)-2-(2-isopropylphenyl)pyrrolidin-1-yl)-7-azaspiro[3.5]nonan-7-yl)-N-(((S)-3-((1r,4S)-4-methoxycyclohexyl)-5-nitro-3,4-dihydro-2H-benzo[b][1,4]oxazin-7-yl)sulfonyl)benzamide] | 1
6 | CC(C)c1ccccc1[C@@H]1CCC[C@@H]1N1CC2(CCN(c3ccc(C(=O)NS(=O)(=O)c4cc5c(c([N+](=O)[O-])c4)N[C@@H]([C@H]4CC[C@](C)(O)CC4)CO5)c(Oc4cnc5[nH]cc(F)c5c4)c3)CC2)C1=O (single isomer, unassigned) [Example D-248, 2-((3-fluoro-1H-pyrrolo[2,3-b]pyridin-5-yl)oxy)-N-(((S)-3-((1r,4S)-4-hydroxy-4-methylcyclohexyl)-5-nitro-3,4-dihydro-2H-benzo[b] [1,4]oxazin-7-yl)sulfonyl)-4-(2-((1S,2S or 1R,2R)-2-(2-isopropylphenyl)cyclopentyl)-1-oxo-2,7-diazaspiro [3.5]nonan-7-yl)benzamide] | 1
7 | CC(C)c1ccccc1[C@@H]1CCCN1C1CC2(CCN(c3ccc(C(=O)NS(=O)(=O)c4cc5c(c([N+](=O)[O-])c4)N[C@@H]([C@H]4CC[C@](C)(O)CC4)CO5)c(Oc4cc5cc[nH]c5nc4OCCO)c3)CC2)C1 (single isomer, unassigned) [Example D-68, N-(((S)-3-((1r,4S)-4-hydroxy-4-methylcyclohexyl)-5-nitro-3,4-dihydro-2H-benzo[b][1,4]oxazin-7-yl)sulfonyl)-2-((6-(2-hydroxyethoxy)-1H-pyrrolo[2,3-b]pyridin-5-yl)oxy)-4-(2-((R or S)-2-(2-isopropylphenyl)pyrrolidin-1-yl)-7-azaspiro[3.5]nonan-7-yl)benzamide] | 1
8 | CC(C)c1ccccc1[C@@H]1CCCN1C1CC2(CCN(c3ccc(C(=O)NS(=O)(=O)c4cc5c(c([N+](=O)[O-])c4)N[C@@H]([C@H]4CC[C@](C)(O)CC4)CO5)c(Oc4cc5cc[nH]c5nc4N4CCC4)c3)CC2)C1 (single isomer, unassigned) [Example D-183, 2-((6-(azetidin-1-yl)-1H-pyrrolo [2,3-b]pyridin-5-yl)oxy)-N-(((S)-3-((1r,4S)-4-hydroxy-4-methylcyclohexyl)-5-nitro-3,4-dihydro-2H-benzo[b][1,4]oxazin-7-yl)sulfonyl)-4-(2-((R or S)-2-(2-isopropylphenyl)pyrrolidin-1-yl)-7-azaspiro[3.5]nonan-7-yl)benzamide] | 1
9 | COc1nc2[nH]ccc2cc1Oc1cc(N2CCC3(CC2)CC(N2CCOC[C@H]2c2ccccc2C(C)C)C3)ccc1C(=O)NS(=O)(=O)c1cnc(NC[C@H]2CC[C@](C)(O)CC2)c([N+](=O)[O-])c1 (single isomer, unassigned) [Example A-125, N-((6-((((1r,4r)-4-hydroxy-4-methyl-cyclohexyl)methyl)amino)-5-nitropyridin-3-yl)sulfonyl)-4-(2-((R or S)-3-(2-isopropylphenyl)morpholino)-7-azaspiro[3.5]nonan-7-yl)-2-((6-methoxy-1H-pyrrolo[2,3-b]pyridin-5-yl)oxy)benzamide] | 2
10 | CC(C)c1ccccc1[C@@H]1COCCN1C1CC2(CCN(c3ccc(C(=O)NS(=O)(=O)c4cnc(NC[C@H]5CC[C@](C)(O)CC5)c([N+](=O)[O-])c4)c(Oc4cnc5[nH]ccc5c4)n3)CC2)C1 (single isomer, unassigned) [Example A-145, 2-((1H-pyrrolo[2,3-b]pyridin-5-yl)oxy)-N-((6-((((1r,4r)-4-hydroxy-4-methylcyclohexyl)methyl)amino)-5-nitropyridin-3-yl)sulfonyl)-6-(2-((R or S)-3-(2-isopropylphenyl)morpholino)-7-azaspiro[3.5]nonan-7-yl)nicotina-mide] | 1

Same assay, conditions: Homo sapiens, Toledo, read-out: Toledo IC50 (nM)

Row | Structure (SMILES) | IC50 [nM]
11 | CC(C)c1ccccc1[C@@H]1COCCN1C1CC2(CCN(c3ccc(C(=O)NS(=O)(=O)c4cc5c(c([N+](=O)[O-])c4)N[C@@H]([C@H]4CC[C@](C)(O)CC4)CO5)c(Oc4cnc5[nH]cc(Cl)c5c4)c3)CC2)C1 (single isomer, unassigned) [Example D-2, 2-((3-chloro-1H-pyrrolo[2,3-b]pyridin-5-yl)oxy)-N-(((S)-3-((1r,4S)-4-hydroxy-4-methylcyclohexyl)-5-nitro-3,4-dihydro-2H-benzo[b] [1,4]oxazin-7-yl)sulfonyl)-4-(2-((R or S)-3-(2-isopropylphenyl)morpholino)-7-azaspiro[3.5]nonan-7-yl) benzamide] | 1

Same assay, conditions: Toledo cells, MTS, read-out: Toledo IC50

Row | Structure (SMILES) | IC50 [nM]
12 | CC(C)c1ccccc1[C@@H]1CCC[C@@H]1N1CC2(CCN(c3ccc(C(=O)NS(=O)(=O)c4cc5c(c([N+](=O)[O-])c4)N[C@@H]([C@H]4CC[C@](C)(O)CC4)CO5)c(Oc4cnc5[nH]cc(F)c5c4)c3)CC2)C1 (single isomer, unassigned) [Example D-28b, 2-((3-fluoro-1H-pyrrolo[2,3-b]pyridin-5-yl)oxy)-N-(((S)-3-((1r,4S)-4-hydroxy-4-methylcyclohexyl)-5-nitro-3,4-dihydro-2H-benzo[b] [1,4]oxazin-7-yl)sulfonyl)-4-(2-((1S,2S or 1R,2R)-2-(2-isopropylphenyl)cyclopentyl)-2,7-diazaspiro[3.5]nonan-7-yl)benzamide] | 1
13 | CC(C)c1ccccc1[C@H]1CCCN1C1CC2(CCN(c3ccc(C(=O)NS(=O)(=O)c4cc5c(c([N+](=O)[O-])c4)NC([C@H]4COCCO4)CO5)c(Oc4cnc5[nH]cc(F)c5c4)c3)CC2)C1 (single isomer, unassigned) [Example D-50b, N-(((R or S)-3-((S)-1,4-dioxan-2-yl)-5-nitro-3,4-dihydro-2H-benzo[b][1,4]oxazin-7-yl)sulfonyl)-2-((3-fluoro-1H-pyrrolo[2,3-b]pyridin-5-yl)oxy)-4-(2-((R or S)-2-(2-isopropylphenyl)pyrrolidin-1-yl)-7-azaspiro[3.5]nonan-7-yl)benzamide] | 1
